# Source: patent publication US20120251496A1, “EZATIOSTAT FOR TREATING MULTIPLE MYELOMA” (Telik, Inc., priority 2011, published 2012)
# Columns and labels:
# [1] = test system: relapsed/refractory myeloma patients; settings: thalidomide alone; cited from earlier work
# U266B1 = experiment: multiple myeloma cell proliferation, U266B1; type: cell-based; settings: U266B1, Human multiple myeloma
# From the text: (§1) The effect that ezatiostat has on multiple myeloma proliferation is tabulated below (Table 1).
# RPMI-8226 = experiment: multiple myeloma cell proliferation, RPMI-8226; type: cell-based; settings: RPMI-8226, Human multiple myeloma
# From the text: as §1
# [2] = test system: human RPMI8226 multiple myeloma cell; experiment: combination with melphalan, inhibition of multiple myeloma cell proliferation; type: cell-based; settings: added together with melphalan; RPMI8226 cells; FIG. 1
# ARH77 = experiment: multiple myeloma cell proliferation, ARH77; type: cell-based; settings: ARH-77, ARH77, Human multiple myeloma
# From the text: as §1
IC50 (U266B1) [nM],IC50 (RPMI-8226) [nM],IC50 (ARH77) [nM],SMILES,partial response rates [1],synergy with melphalan in inhibiting cell proliferation [2]
–,–,–,"O=C1CCC(N2C(=O)c3ccccc3C2=O)C(=O)N1 (centres unmarked) [Thalidomide, thalidomide]",about 30 % of patients,–
860,33000,2230,CCOC(=O)[C@@H](N)CCC(=O)N[C@@H](CSCc1ccccc1)C(=O)N[C@@H](C(=O)OCC)c1ccccc1 [ezatiostat],–,demonstrated synergy with melphalan
